Assay results reported in BindingDB's records for patent US20250170104 (Helmholtz-Zentrum Fur Infektionsforschung, 2025).

Molecular target: Elastase (Pseudomonas aeruginosa (strain ATCC 15692 / DSM 22644 / CIP 104116 / JCM 14847 / LMG 12228 / 1C / PRS 101 / PAO1), UniProt P14756)
Assay: In Vitro LasB Activity Assay
Method: Fluorescence intensity was measured for 60 min at 37° C. in black 384-well microtiter plates (Greiner BioOne, Kremsm nster, Austria) using a CLARIOstar microplate reader (BMG Labtech, Ortenberg, Germany) with an excitation wavelength of […] and an emission wavelength of 415±20 nm. The assay was performed in a final volume of 50 μL of assay buffer (50 mM Tris, pH 7.2, 2.5 mM CaCl2), 0.075% Pluronic F-127, 5% DMSO) containing LasB at a final concentration of […] 0.3 nM and the substrate at 150 μM. Before substrate addition, compounds were preincubated with the enzyme at 37° C. for 15 min. Experiments were performed in duplicates and repeated for at least two times. Blank controls without enzyme were performed. After blank subtraction, the slope of samples containing inhibitors (v) was divided by the slope of a simultaneously started uninhibited enzymatic reaction (v0).

Chain of Elastase (P14756 whole entry): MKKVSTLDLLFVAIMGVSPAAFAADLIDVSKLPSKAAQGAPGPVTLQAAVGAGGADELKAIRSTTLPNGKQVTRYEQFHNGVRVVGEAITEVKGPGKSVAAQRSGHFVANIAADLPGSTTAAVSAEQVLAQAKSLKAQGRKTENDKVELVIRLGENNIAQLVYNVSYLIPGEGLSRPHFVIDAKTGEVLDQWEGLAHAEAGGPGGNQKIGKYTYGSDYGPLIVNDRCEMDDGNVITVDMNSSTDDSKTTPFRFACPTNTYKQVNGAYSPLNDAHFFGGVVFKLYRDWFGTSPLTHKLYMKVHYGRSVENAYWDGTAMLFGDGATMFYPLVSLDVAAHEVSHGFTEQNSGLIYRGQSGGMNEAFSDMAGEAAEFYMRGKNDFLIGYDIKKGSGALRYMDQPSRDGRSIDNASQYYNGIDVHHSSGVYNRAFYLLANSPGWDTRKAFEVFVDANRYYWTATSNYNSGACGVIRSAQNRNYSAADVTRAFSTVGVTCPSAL

`CC(C)CC(C(=O)NO)C(=O)Nc1ccc(Cn2cc(CNS(=O)(=O)c3ccc(C(=O)O)cc3)nn2)cc1` (stereo unspecified) [US20250170104, Compound 209] gave an IC50 of 44.6 nM.
